Results on 22 compounds are retold here after patent US20070043049A1, “Substituted heterocyclic diarylamine analogues” (Neurogen Corporation, priority 2003, published 2007).

In general, IC50 refers to the concentration that inhibits the measured activity by half.

The target in this assay is T1, human capsaicin receptor (Homo sapiens, UniProt Q8NER1).
T1 construct: pBK-CMV expression construct encoding the full length human capsaicin receptor; expressed in transfected cells
T1 sequence (Q8NER1 whole entry): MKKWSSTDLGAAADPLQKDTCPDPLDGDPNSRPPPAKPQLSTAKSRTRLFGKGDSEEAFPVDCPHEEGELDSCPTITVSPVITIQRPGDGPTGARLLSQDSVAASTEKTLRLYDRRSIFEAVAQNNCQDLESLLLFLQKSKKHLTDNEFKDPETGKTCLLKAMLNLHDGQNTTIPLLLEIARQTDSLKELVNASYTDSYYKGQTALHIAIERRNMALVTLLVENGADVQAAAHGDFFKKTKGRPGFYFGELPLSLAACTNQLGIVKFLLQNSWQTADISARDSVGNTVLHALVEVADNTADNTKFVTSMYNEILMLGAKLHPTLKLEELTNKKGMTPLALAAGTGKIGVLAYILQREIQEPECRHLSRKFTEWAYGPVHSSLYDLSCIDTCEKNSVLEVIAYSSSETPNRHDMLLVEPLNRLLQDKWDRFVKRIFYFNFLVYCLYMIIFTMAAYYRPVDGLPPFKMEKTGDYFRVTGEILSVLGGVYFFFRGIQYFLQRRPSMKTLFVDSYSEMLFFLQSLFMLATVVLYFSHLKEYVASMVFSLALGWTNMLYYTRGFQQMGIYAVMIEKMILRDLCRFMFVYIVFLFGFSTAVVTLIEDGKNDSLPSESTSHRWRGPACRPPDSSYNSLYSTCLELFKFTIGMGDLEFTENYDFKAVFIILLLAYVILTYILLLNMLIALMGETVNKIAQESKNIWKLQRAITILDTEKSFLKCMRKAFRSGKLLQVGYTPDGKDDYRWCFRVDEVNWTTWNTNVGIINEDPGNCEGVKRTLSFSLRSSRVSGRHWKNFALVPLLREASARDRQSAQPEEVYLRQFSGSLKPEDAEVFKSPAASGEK
Nature of the assay: Calcium mobilization assay, determination of antagonist activity (Example 6). The class given is cell-based. The note with it: 50% decrease in fluorescence response of cells expressing human capsaicin receptor exposed to capsaicin. The protocol: A cDNA encoding full length human capsaicin receptor (SEQ ID NO:1, 2 or 3 of U.S. Pat. No. 6,482,611) was subcloned in the plasmid pBK-CMV (Stratagene, La Jolla, Calif.) for recombinant expression in mammalian cells.
Human embryonic kidney (HEK293) cells were transfected with the pBK-CMV expression construct encoding the full length human capsaicin receptor using standard methods. The transfected cells were selected for two weeks in media containing G418 (400 μg/ml) to obtain a pool of stably transfected cells. Independent clones were isolated from this pool by limiting dilution to obtain clonal stable cell lines for use in subsequent experiments.
Cells transfected with expression plasmids (as described in Example 4) and thereby expressing human capsaicin receptor are seeded and grown to 70-90% confluency in FALCON black-walled, clear-bottomed 96-well plates (#3904, BECTON-DICKINSON, Franklin Lakes, N.J.). The culture medium is emptied from the 96 well plates and FLUO-3 AM calcium sensitive dye (Molecular Probes, Eugene, Oreg.) is added to each well (dye solution: 1 mg FLUO-3 AM, 440 μL DMSO and 440 μl 20% pluronic acid in DMSO, diluted 1:250 in Krebs-Ringer HEPES (KRH) buffer (25 mM HEPES, 5 mM KCl, 0.96 mM NaH2PO4, 1 mM MgSO4, 2 mM CaCl2, 5 mM glucose, 1 mM probenecid, pH 7.4), 50 μl diluted solution per well). Plates are covered with aluminum foil and incubated at 37° C. for 1-2 hours in an environment containing 5% CO2. After the incubation, the dye is emptied from the plates, and the cells are washed once with KRH buffer, and resuspended in KRH buffer.
To measure the ability of a test compound to agonize or antagonize a calcium mobilization response in cells expressing capsaicin receptors to capsaicin or other vanilloid agonist, the EC50 of the agonist capsaicin is first determined. An additional 20 μl of KRH buffer and 1 μl DMSO is added to each well of cells, prepared as described above. 100 μl capsaicin in KRH buffer is automatically transferred by the FLIPR instrument to each well. Capsaicin-induced calcium mobilization is monitored using either FLUOROSKAN ASCENT (Labsystems; Franklin, Mass.) or FLIPR (fluorometric imaging plate reader system; Molecular Devices, Sunnyvale, Calif.) instruments. Data obtained between 30 and 60 seconds after agonist application are used to generate an 8-point concentration response curve, with final capsaicin concentrations of 1 nM to 3 μM. KALEIDAGRAPH software (Synergy Software, Reading, Pa.) is used to fit the data to the equation: y=a*(1/(1+(b/x)^c)) to determine the 50% excitatory concentration (EC50) for the response. In this equation, y is the maximum fluorescence signal, x is the concentration of the agonist or antagonist (in this case, capsaicin), a is the Emax, b corresponds to the EC50 value and c is the Hill coefficient. Determination of Agonist Activity
Test compounds are dissolved in DMSO, diluted in 20 μl KRH buffer so that the final concentration of test compounds in the assay well is between 1 μM and 5 μM, and added to cells prepared as described above. The 96 well plates containing prepared cells and test compounds are incubated in the dark, at room temperature for 0.5 to 6 hours. It is important that the incubation not continue beyond 6 hours. Just prior to determining the fluorescence response, 100 μl capsaicin in KRH buffer at twice the EC50 concentration determined as described above is automatically added by the FLIPR instrument to each well of the 96 well plate for a final sample volume of 200 μl and a final capsaicin concentration equal to the EC50. The final concentration of test compounds in the assay wells is between 1 μM and […]. […] The concentration of antagonist required to provide a 50% decrease, relative to the response observed in the presence of capsaicin and without antagonist, is the IC50 for the antagonist, and is preferably below 1 micromolar, 100 nanomolar, 10 nanomolar or 1 nanomolar.
For orientation: Calcium flux is commonly read through the fluorescence of an indicator in the cells.
Turning to `CCN(C)c1nc(Nc2cccc(F)c2)nc(N2CCN(c3ncccc3Cl)CC2)n1` [Compound 72, 6-[4-(3-Chloro-pyridin-2-yl)-piperazin-1-yl]-N-ethyl-N′-(3-fluoro-phenyl)-N-methyl-[1,3,5]triazine-2,4-diamine], the IC50 was no more than 1000 nM.

As for `CCN(CC)c1nc(Nc2ccc(F)c(F)c2)nc(N2CCN(c3ccccn3)CC2)n1` [Compound 95, N-(3,4-Difluoro-phenyl)-N′,N′-diethyl-6-(4-pyridin-2-yl-piperazin-1-yl)-[1,3,5]triazine-2,4-diamine], the IC50 was no more than 1000 nM.

As to `C[C@@H]1CN(c2ncccc2C(F)(F)F)CCN1c1nc(Nc2ccc(C(C)(C)C)cc2)nc(OCc2ccccc2C(F)(F)F)n1` [Compound 6, (4-tert-Butyl-phenyl)-[4-[2-methyl-4-(3-trifluoromethyl-pyridin-2-yl)-piperazin-1-yl]-6-(2-trifluoromethyl-benzyloxy)-[1,3,5]triazin-2-yl]-amine (R)], the 50% inhibitory concentration (IC50) was no more than 1000 nM.

Take `CCN(CC)c1nc(Nc2cc(OC)ccc2OC)nc(N2CCN(c3ccccn3)CC2)n1` [Compound 108, N-(2,5-Dimethoxy-phenyl)-N′,N′-diethyl-6-(4-pyridin-2-yl-piperazin-1-yl)-[1,3,5]triazine-2,4-diamine]: the IC50 was no more than 1000 nM.

Turning to `CCN(CC)c1nc(Nc2ccc(C#N)cc2)nc(N2CCN(c3ncccc3Cl)CC2)n1` [Compound 107, 4-{4-[4-(3-Chloro-pyridin-2-yl)-piperazin-1-yl]-6-diethylamino-[1,3,5]triazin-2-ylamino}-benzonitrile], the IC50 was no more than 1000 nM.

Regarding `CCC(C)Nc1nc(Nc2ccc(C(F)(C(F)(F)F)C(F)(F)F)cc2)nc(N2CCN(c3ncccc3Cl)C[C@H]2C)n1` (stereo partly drawn) [Compound 27, N-sec-Butyl-6-[4-(3-chloro-pyridin-2-yl)-2-methyl-piperazin-1-yl]-N′-[4-(1,2,2,2-tetrafluoro-1-trifluoromethyl-ethyl)-phenyl]-[1,3,5]triazine-2,4-diamine (R)], the IC50 is no more than 1000 nM.

With `COc1ccccc1N1CCN(c2nc(Nc3ccc(C(C)(C)C)cc3)nc(OCc3ccccc3C(F)(F)F)n2)CC1` [Compound 12, (4-tert-Butyl-phenyl)-[4-[4-(2-methoxy-phenyl)-piperazin-1-yl]-6-(2-trifluoromethyl-benzyloxy)-[1,3,5]triazin-2-yl]-amine], the IC50 is no more than 1000 nM.

On to `C[C@@H]1CN(c2ncccc2Cl)CCN1c1nc(Nc2ccc(C(F)(F)F)cc2)nc(N(C)C)n1` [Compound 18, 6-[4-(3-Chloro-pyridin-2-yl)-2-methyl-piperazin-1-yl]-N,N-dimethyl-N′-(4-trifluoromethyl-phenyl)-[1,3,5]triazine-2,4-diamine (R)], for which the IC50 was no more than 1000 nM.

With `FC(F)(F)c1cccnc1N1CCN(c2nc(Nc3cccc(Cl)c3)nc(N3CCOCC3)n2)CC1` [Compound 67, (3-Chloro-phenyl)-{4-morpholin-4-yl-6-[4-(3-trifluoromethyl-pyridin-2-yl)-piperazin-1-yl]-[1,3,5]triazin-2-yl}-amine], the half-inhibitory concentration (IC50) is no more than 1000 nM.

In the case of `CCN(CC)c1nc(Nc2ccc(F)c(F)c2)nc(N2CCN(c3ncccc3Cl)CC2)n1` [Compound 91, 6-[4-(3-Chloro-pyridin-2-yl)-piperazin-1-yl]-N-(3,4-difluoro-phenyl)-N′,N′-diethyl-[1,3,5]triazine-2,4-diamine], the IC50 is no more than 1000 nM.

For the compound `CCCCNc1nc(Nc2ccc(C(F)(F)F)cc2)nc(N2CCN(c3ncccc3Cl)C[C@H]2C)n1` [Compound 19, N-Butyl-6-[4-(3-chloro-pyridin-2-yl)-2-methyl-piperazin-1-yl]-N′-(4-trifluoromethyl-phenyl)-[1,3,5]triazine-2,4-diamine (R)], the IC50 is no more than 1000 nM.

Regarding `FC(F)(F)c1cccnc1N1CCN(c2cc(N3CCOCC3)nc(Nc3cccc(Cl)c3)n2)CC1` [Compound 84, (3-Chloro-phenyl)-{4-morpholin-4-yl-6-[4-(3-trifluoromethyl-pyridin-2-yl)-piperazin-1-yl]-pyrimidin-2-yl}-amine], the IC50 is no more than 1000 nM.

For the compound `Fc1ccc(Nc2nc(N3CCOCC3)nc(N3CCN(c4ncccc4C(F)(F)F)CC3)n2)cc1` [Compound 59, (4-Fluoro-phenyl)-{4-morpholin-4-yl-6-[4-(3-trifluoromethyl-pyridin-2-yl)-piperazin-1-yl]-[1,3,5]triazin-2-yl}-amine], the IC50 is no more than 1000 nM.

On to `CN(C)c1nc(Nc2ccccc2)nc(N2CCN(c3ncccc3C(F)(F)F)CC2)n1` [Compound 51, N,N-Dimethyl-N′-phenyl-6-[4-(3-trifluoromethyl-pyridin-2-yl)-piperazin-1-yl]-[1,3,5]triazine-2,4-diamine], for which the IC50 was no more than 1000 nM.

On to `CC(C)CNc1nc(Nc2ccc(C(F)(C(F)(F)F)C(F)(F)F)cc2)nc(N2CCN(c3ncccc3Cl)C[C@H]2C)n1` [Compound 26, 6-[4-(3-Chloro-pyridin-2-yl)-2-methyl-piperazin-1-yl]-N-isobutyl-N′-[4-(1,2,2,2-tetrafluoro-1-trifluoromethyl-ethyl)-phenyl]-[1,3,5]triazine-2,4-diamine (R)], for which the 50% inhibitory concentration (IC50) was no more than 1000 nM.

`C[C@@H]1CN(c2ncccc2Cl)CCN1c1nc(Nc2cccc(F)c2)nc(N2CCOCC2)n1` (stereo in doubt) [Compound 104, {4-[4-(3-Chloro-pyridin-2-yl)-2-methyl-piperazin-1-yl]-6-morpholin-4-yl-[1,3,5]triazin-2-yl}-(3-fluoro-phenyl)-amine]: the IC50 is no more than 1000 nM.

As for `CCN(c1nc(Nc2ccc(C(F)(F)F)cc2)nc(N2CCN(c3ncccc3Cl)CC2)n1)C(C)C` [Compound 50, 6-[4-(3-Chloro-pyridin-2-yl)-piperazin-1-yl]-N-ethyl-N-isopropyl-N′-(4-trifluoromethyl-phenyl)-[1,3,5]triazine-2,4-diamine], the IC50 was no more than 1000 nM.

On to `CCCNc1nc(Nc2cccc(F)c2)nc(N2CCN(c3ncccc3Cl)CC2)n1` [Compound 81, 6-[4-(3-Chloro-pyridin-2-yl)-piperazin-1-yl]-N-(3-fluoro-phenyl)-N′-propyl-[1,3,5]triazine-2,4-diamine], for which the IC50 is no more than 1000 nM.

As to `C[C@@H]1CN(c2ncccc2Cl)CCN1c1nc(Cl)nc(Nc2ccc(C(C)(C)C)cc2)n1` [Compound 2, (4-tert-Butyl-phenyl)-{4-chloro-6-[4-(3-chloro-pyridin-2-yl)-2-methyl-piperazin-1-yl]-[1,3,5]triazin-2-yl}-amine (R)], the IC50 was no more than 1000 nM.

For `CN(C)c1nc(Nc2ccc(C(F)(F)F)cc2)nc(N2CCN(c3ncccc3Cl)CC2)n1` [Compound 44, 6-[4-(3-Chloro-pyridin-2-yl)-piperazin-1-yl]-N,N-dimethyl-N′-(4-trifluoromethyl-phenyl)-[1,3,5]triazine-2,4-diamine], the IC50 is no more than 1000 nM.

As for `FC(F)(F)c1ccc(Nc2nc(N3CCCCC3)nc(N3CCN(c4ncccc4Cl)CC3)n2)cc1` [Compound 52, {4-[4-(3-Chloro-pyridin-2-yl)-piperazin-1-yl]-6-piperidin-1-yl-[1,3,5]triazin-2-yl}-(4-trifluoromethyl-phenyl)-amine], the IC50 was no more than 1000 nM.

Regarding `CC(C)c1ccc(-c2nc(Nc3ccc(C(F)(F)F)cc3)nc(N3CCN(c4ncccc4Cl)C[C@H]3C)n2)cc1` (stereo in doubt) [Compound 114, [4-[4-(3-Chloro-pyridin-2-yl)-2-methyl-piperazin-1-yl]-6-(4-isopropyl-phenyl)-[1,3,5]triazin-2-yl]-(4-trifluoromethyl-phenyl)-amine], the IC50 is no more than 1000 nM.
